# Assays:
# [1] = system: zebrafish embryos and larvae; test: Zebrafish embryo toxicity test (OECD test no. 236, modified); type: in vivo
# Procedure: At first, zebrafish embryos were screened and sorted one hour after fertilization. Only perfectly transparent and fertilized embryos were transferred to plastic well plates. […] Developing embryos were incubated in the MGN solutions until 96 hpf. The amounts of MGN absorbed by zebrafish were measured in 96 hpf-old larvae (n = 50 larvae/sample, three samples/dose) through the use of HPLC-MS. The larvae were first washed in medium prior to homogenization with the additive of acetonitrile:water mixture in equal proportions (50:50 v/v). The homogenate was centrifuged at 20,000 rpm for 20 min, and the supernatant was pipetted, filtered through a nylon syringe filter (nominal pore size of 0.1 µm diameter) and subjected to HPLC-MS analysis in the positive ionization mode.
# The following phenotypic features were scored in larvae exposed to different doses of MGN: (I) hatchability at 72 and 96 hpf, (II) morphological anomalies at 96 hpf, and (III) escape response at 96 hpf. Morphological analysis included the presence/lack of swim bladder, body axis/shape, presence/lack of pericardial edema, jaw development, normal/necrotic yolk sac, presence/absence of hemorrhage and changes in pigmentation. For photographs, each larva was anaesthetized and mounted on a glass slide. To evaluate the muscle performance and function in MGN-incubated larvae, in a separate cohort of 96 hours-old larvae, we assessed escape response by touching the tail with the tip of a needle.
# MKN-74 human GC cells [2] = test: MTT assay (viability; isobolographic analysis); type: cell-based; details: MKN-74, 72 h incubation, mean ± SEM
# Procedure: (§1) The human GC cells ACC-201, AGS, MKN-74 and NCI-N87 were placed in 96-well plates and allowed to adhere overnight. On the following day, the growth medium was removed, and the cells were treated with a series of tested MGN and DCT dilutions (2.0–75 and 0.0004–0.0404 µg/mL, respectively) for 72 h at 37 °C. […] Subsequently, a solution of MTT (5 mg/mL) was added to each well, and the cells were further incubated for 3 h at 37 °C. Tetrazolium salt was reduced to violet formazan derivatives via the succinate dehydrogenase of metabolically active cells. Insoluble formazan compounds formed inside the cells were extracted with a sodium dodecyl sulfate buffer (10% SDS in 0.01 N HCl) overnight to achieve a quantitative assessment of the amount produced. The absorbance of the samples was measured at 570 nm using Infinite M200 Pro microplate reader (Tecan, Männedorf, Switzerland). Cell viability was presented as a percentage relative to the untreated control cells.
# (§2) Interactions between MGN and DCT analyzed after 72 h in four different GC cell lines (ACC-201, AGS, MKN-74 and NCI-N87) were characterized by means of an isobolographic analysis in the MTT assay. The percentage inhibition of cell viability accompanied by the specific concentrations of the tested substances (MGN and DCT) were transferred to the MS Excel spreadsheet, and the data were computed using the log–probit method. Next, the concentration–response effect graphs for the tested drugs (MGN and DCT) were drawn, and the IC50 values for every tested drug were calculated. The cooperative effect of two concentration–response lines was tested for the MGN and DCT combination, as previously described. The calculations of IC50 values (±SEM) were computed with formulas originally derived from the log–probit method and adapted to the in vitro conditions, as described earlier. The concentration–response lines for MGN and DCT were not parallel, and thus, the isobolographic additivity was illustrated graphically as an area bounded by two (upper and lower) lines of additivity. From the experimentally denoted IC50 values for MGN and DCT in the MTT assay, median additive inhibitory concentrations (IC50add) for the mixture (at the fixed ratio of 1:1 of MGN and DCT) in various cell lines (ACC-201, AGS, MKN-74 and NCI-N87) were calculated, as described previously. More information on isobolographic analysis can be found in the literature.
# AGS human GC cells [3] = test: MTT assay (viability; isobolographic analysis); type: cell-based; details: 72 h incubation, mean ± SEM
# Procedure: as §1, §2
# NCI-N87 human GC cells = test: MTT assay (viability; isobolographic analysis); type: cell-based; details: NCI-N87, 72 h incubation, mean ± SEM
# Procedure: as §1, §2
# ACC-201 human GC cells [4] = test: MTT assay (viability; isobolographic analysis); type: cell-based; details: ACC-201, 72 h incubation, mean ± SEM
# Procedure: as §1, §2
# zebrafish larvae = test: Locomotor activity assay in larval zebrafish; type: in vivo; details: MGN 100, 175 or 250 µg/mL, after 95 h incubation
# Procedure: Locomotor activity was examined to determine whether chronic MGN exposure may induce neurotoxic effects in fish. Noldusapparatus (EthoVision XT, Wageningen, The Netherlands) was used for this purpose. After 95 h of incubation in different doses of MGN (100, 175 or 250 µg/mL), each larva was placed individually in the wells of a 48-well plate filled with 300 µL of the medium. After 15 min of habituation, larval activity was tracked in the light phase for a period of 30 min. The distance covered by each larva in millimeters (mm) was assessed.
# MKN-74 human GC cells [5] = test: Active caspase-3 analysis (flow cytometry); type: cell-based; details: MKN-74, MGN 10 µg/mL, 72 h
# Procedure: (§3) Human GC cells ACC-201, AGS, MKN-74 and NCI-N87 were seeded in 6-well plates and allowed to adhere overnight. On the following day, the growth medium was replaced with fresh medium, and the cells were exposed to indicated concentrations of MGN (10–40 µg/mL) for 72 h. Apoptotic cells were analyzed using PE Active Caspase-3 Apoptosis Kit (BD Biosciences) according to the manufacturer’s instructions. Briefly, the cells were collected, washed with cold PBS and then incubated in Cytofix/Cytoperm Solution for 20 min on ice. After two washes, the cells were incubated with Active Caspase-3 Antibody in Perm/Wash Buffer for 30 min at room temperature. Finally, the cells were resuspended in Perm/Wash Buffer and quantitative analysis of 10,000 cells per sample was performed through the use of FACS CaliburTM flow cytometer (BD Biosciences, Mountain View, CA, USA).
# AGS human GC cells [6] = test: Active caspase-3 analysis (flow cytometry); type: cell-based; details: 72 h
# Procedure: as §3
# ACC-201 human GC cells [7] = test: Active caspase-3 analysis (flow cytometry); type: cell-based; details: ACC-201, MGN 10 µg/mL, 72 h
# Procedure: as §3
smiles,measurement,setting,value
"COc1ccc2c(c1O)-c1c(O)c(OC)cc3c1[C@H](C2)[N+](C)(C)CC3 [MGN, magnoflorine]",Hatching rate,"[1]; MGN 100 µg/mL, scored at 72 hpf",100%
same,Hatching rate,"[1]; MGN 100 µg/mL, scored at 96 hpf",100%
same,Hatching rate,"[1]; MGN 175 µg/mL, scored at 72 hpf",100%
same,Hatching rate,"[1]; MGN 175 µg/mL, scored at 96 hpf",100%
same,Hatching rate,"[1]; MGN 250 µg/mL, scored at 72 hpf",52.77%
same,Hatching rate,"[1]; MGN 250 µg/mL, scored at 96 hpf",94.44%
same,larvae with curved body axis,"[1]; MGN 500 µg/mL, 96 hpf",43%
same,larvae with delayed touch response,"[1]; MGN 500 µg/mL, 96 hpf",70%
same,larvae with heart edema,"[1]; MGN 500 µg/mL, 96 hpf",40%
same,larvae with lack of swim bladder,"[1]; MGN 500 µg/mL, 96 hpf",93%
same,larvae with underdeveloped jaw,"[1]; MGN 500 µg/mL, 96 hpf",90%
same,larvae with yolk sac necrosis,"[1]; MGN 500 µg/mL, 96 hpf",46%
same,Hatching rate,"[1]; MGN 500 µg/mL, scored at 72 hpf",23.33%
same,Hatching rate,"[1]; MGN 500 µg/mL, scored at 96 hpf",86.66%
same,Hatching,"[1]; MGN 750 µg/mL, up to 96 h",none of the larvae hatched
same,Survival,"[1]; MGN 750 µg/mL, up to 96 h",all survived in chorions
same,concentration with no evidence of toxicity,"[1]; developing zebrafish, chronic exposure from 1 hpf to 96 hpf",up to 250 µg/mL
same,morphological parameters scored,"[1]; three lowest concentrations (100, 175, 250 µg/mL), 96 hpf",did not affect any of the parameters scored
same,IC50,MKN-74 human GC cells [2],34.8 ± 6.04 µg/mL
same,IC50,AGS human GC cells [3],17.2 ± 3.59 µg/mL
same,IC50,NCI-N87 human GC cells,33.3 ± 5 µg/mL
same,IC50,ACC-201 human GC cells [4],15.8 ± 2.79 µg/mL
same,locomotor activity: distance travelled within 30 min vs control,zebrafish larvae,No differences between the tested groups
same,% cells with active caspase-3,MKN-74 human GC cells [5],2.633 ± 0.069%
same,% cells with active caspase-3,AGS human GC cells [6]; MGN 10 µg/mL,2.390 ± 0.411%
same,% cells with active caspase-3,AGS human GC cells [6]; MGN 20 µg/mL,4.172 ± 0.422%
same,% cells with active caspase-3,ACC-201 human GC cells [7],6.770 ± 0.866%

# — publication PMC10647589, “Heterogeneous Cellular Response of Primary and Metastatic Human Gastric Adenocarcinoma Cell Lines to Magnoflorine and Its Additive Interaction with Docetaxel” (International Journal of Molecular Sciences, 2023)
